Results taken from the supplement of paper PMC10307832.

Experiments:
Experiment in all cases: relative viability (nuclei count vs DMSO), 5 days (fraction); higher = more cells survive
[1] = compound: Cn1nnc2c(C(N)=O)ncn2c1=O [Temozolomide] + Nc1nc2[nH]cc(CCc3ccc(C(=O)N[C@@H](CCC(=O)O)C(=O)O)cc3)c2c(=O)[nH]1 [Pemetrexed] (partner 0.2 µM)
Method in brief: (§1)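 Lung cancer cell lines were seeded in 1536-well plates and dosed by pin tool the next day, with either a single drug or a fixed anchor-drug dose combined with five library-drug doses (not always all listed) spaced in √10 steps. Five days later, one step fixed the cells and stained their nuclei (final 0.05% Triton X-100, 1% formaldehyde, 1 ug/ml Hoechst), and nuclei were counted on 4× images. Relative viability is the nuclei count in treated wells divided by the count in vehicle wells, and each value is the median of duplicate plates.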

AZD5582 + OSI-027 = compound: C[C@@H](C(=O)N[C@@H](C1CCCCC1)C(=O)N2CCC[C@H]2C(=O)N[C@@H]3[C@@H](CC4=CC=CC=C34)OCC#CC#CCO[C@@H]5CC6=CC=CC=C6[C@@H]5NC(=O)[C@@H]7CCCN7C(=O)[C@H](C8CCCCC8)NC(=O)[C@H](C)NC)NC [AZD5582] + COc1cccc2cc(-c3nc([C@H]4CC[C@H](C(=O)O)CC4)n4ncnc(N)c34)[nH]c12 [OSI-027] (partner 0.5 µM)
Method in brief: as §1

Temozolomide = compound: Cn1nnc2c(C(N)=O)ncn2c1=O [Temozolomide]
Method in brief: (§2)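 Lung cancer cell lines were seeded into 1536-well plates, kept overnight at 37 °C and pinned with five library-drug doses (not always all listed) spaced by √10. After 5 days, nuclei were Hoechst-stained, imaged at 4× and counted with MetaXpress. Viability is treated-well nuclei over vehicle-well nuclei, taken as a median across plates. Plates needed control CV below 25% and at least one doubling.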

AZD5582 = compound: C[C@@H](C(=O)N[C@@H](C1CCCCC1)C(=O)N2CCC[C@H]2C(=O)N[C@@H]3[C@@H](CC4=CC=CC=C34)OCC#CC#CCO[C@@H]5CC6=CC=CC=C6[C@@H]5NC(=O)[C@@H]7CCCN7C(=O)[C@H](C8CCCCC8)NC(=O)[C@H](C)NC)NC [AZD5582]
Method in brief: as §2

Cell Line	relative viability ([1]; first compound 0.2 µM)	relative viability ([1]; first compound 0.6325 µM)	relative viability ([1]; first compound 2 µM)	relative viability ([1]; first compound 6.325 µM)	relative viability ([1]; first compound 20 µM)	relative viability (AZD5582 + OSI-027; first compound 0.001581 µM)	relative viability (AZD5582 + OSI-027; first compound 0.005 µM)	relative viability (AZD5582 + OSI-027; first compound 0.05 µM)	relative viability (Temozolomide; 0.2 µM)	relative viability (Temozolomide; 0.6325 µM)	relative viability (Temozolomide; 2 µM)	relative viability (Temozolomide; 6.325 µM)	relative viability (Temozolomide; 20 µM)	relative viability (AZD5582; 0.001581 µM)	relative viability (AZD5582; 0.005 µM)	relative viability (AZD5582; 0.01581 µM)	relative viability (AZD5582; 0.05 µM)	relative viability (AZD5582 + OSI-027; first compound 0.01581 µM)
HCC-366	0.143	0.17	0.188	0.165	0.155	0.654	0.995	0.934	0.939	1	1.08	0.987	0.992	0.978	1.02	0.978	1.08	
HCC-827	0.176	0.273	0.249	0.264	0.16	0.618	0.84	0.855	1.08	1.05	1.05	1	0.177	1.03	1.07	0.991	0.993	0.761
HOP-62	0.302	0.264	0.287	0.314	0.294	0.727	0.837	0.83	1.11	0.997	1.04	0.926	1.01	0.875	1.03	1.04	1.06	0.83
IA-LM									1.11	0.94	1	0.961	0.951	0.77	0.86	0.828	0.897	
LC-2-ad	0.281	0.296	0.279	0.291	0.287	0.823	1.05	0.957	1.06	1.09	1.04	0.971	0.78	0.997	1.09	0.965	1.03	0.725
LCLC-97TM1	0.195	0.198	0.177	0.156	0.209	0.4	0.567	0.382	1.15	0.985	0.764	0.83	1.1	0.797	1.06	0.644	0.525	0.496
LCLC-103H	0.467	0.461	0.519	0.465	0.515	0.465	0.486	0.37	0.995	1	1.06	0.928	0.92	1.02	1.14	0.852	1.01	0.375
LK-2	0.284	0.288	0.299	0.264	0.277	0.237	0.257	0.179	0.997	1.06	0.961	0.645	0.407	0.766	1.07	0.876	1.23	0.197
LOU-NH91	0.389	0.366	0.371	0.395	0.458	0.752	0.739	0.711	0.856	0.979	0.993	0.926	0.786	0.924	0.944	0.882	0.925	0.705
LU99A	0.208	0.179	0.175	0.185	0.252	0.259	0.295	0.287	1.06	0.946	1.03	0.97	1.03	1.07	1.02	0.954	1.11	0.243
LXF-289	0.941	0.877	0.868	0.857	0.868	0.71	0.907	0.792	1.04	0.959	1.01	1.03	0.892	0.958	1.01	0.968	1	0.495
NCI-H23	0.825	0.749	0.716	0.565	0.677	0.403	0.45	0.21	1.2	1.03	0.994	0.909	0.993	0.782	0.848	0.477	0.519	0.245
NCI-H322M	0.56	0.591	0.635	0.499	0.536	0.508	0.713	0.562		0.931	1	0.957	0.577	1.02	1.15	0.938	1.03	
NCI-H358	0.196	0.173	0.18	0.164	0.17	0.677	0.962	0.777	0.855	1.02	1	0.904	0.777	0.915	1.17	0.944	0.972	0.821
NCI-H441	0.28	0.309	0.272	0.257	0.236	0.536	0.582	0.651	1.25	1.06	1.29	0.997	1.15	0.77	0.954	0.869	0.982	
NCI-H727						0.51	0.473	0.529	0.83	0.923	1.13	0.798	0.805	1.02	1.01	0.858	0.979	0.508
NCI-H1299									1.03	1.04	1.07	1.03	1.03	1	1.02	1	0.991	
NCI-H1623						0.422	0.407	0.432		1.18	1.04	0.979	0.66	1.03	1.08	0.995	0.95	0.457
